From patent US6906205B2, “Spiro and dispiro 1,2,4-trioxolane antimalarials” (Medicines for Malaria Venture MMV, priority 2002, dated 2005)
≈ marks a conversion by molar mass, not a printed value.

What follows are compounds tested on P. falciparum K1 strain (Thailand resistant to chloroquine) (assay: semiautomated microdilution assay, [3H]-hypoxanthine incorporation, K1 strain). Details: K1 strain, 72 h incubation.
Format: cell-based, Plasmodium falciparum
Method in brief: (§1)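 Asynchronous stock cultures → intraerythrocytic forms; semiautomated microdilution; IC50 by logit regression.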
`COC(=O)c1ccc(C2(c3ccc(C(=O)OC)c(C(=O)OC)c3)OOC3(O2)C2CC4CC(C2)CC3C4)cc1C(=O)OC` (stereo not drawn) [OZ106] was tested, and the “IC50 (ng/ml) K1” value was 2.2 ng/mL (≈ 3.79 nM). `[N-]=[N+]=NCC[C@H]1CC[C@]2(CC1)OOC1(O2)C2CC3CC(C2)CC1C3` (stereo partly drawn) [OZ228] was tested, and the “IC50 (ng/ml) K1” value was 2.0 ng/mL (≈ 6 nM). `Fc1ccc(C2(c3ccc(F)cc3)OOC3(CCC(c4ccccc4)CC3)O2)cc1` (stereo not drawn) [OZ66] was tested, and the “IC50 (ng/ml) K1” value was 44 ng/mL (≈ 108 nM). In the case of `COC(=O)c1cncn1C[C@H]1CC[C@]2(CC1)OOC1(O2)C2CC3CC(C2)CC1C3` (stereo partly drawn) [OZ223], the “IC50 (ng/ml) K1” value is reported as 4.0 ng/mL (≈ 9.94 nM). With `O=C([C@H]1CC[C@]2(CC1)OO[C@]1(O2)C2CC3CC(C2)CC1C3)N1CCNCC1` [OZ368] the “IC50 (ng/ml) K1” value was 0.63 ng/mL (≈ 1.67 nM).

What follows are compounds tested on P. falciparum NF54 strain (sensitive to standard antimalarials) (assay: semiautomated microdilution assay, [3H]-hypoxanthine incorporation, NF54 strain). Details: NF54 strain, 72 h incubation.
Format: cell-based, Plasmodium falciparum
Method in brief: as §1
`COC(=O)c1ccc(C2(c3ccc(C(=O)OC)c(C(=O)OC)c3)OOC3(O2)C2CC4CC(C2)CC3C4)cc1C(=O)OC` (stereo not drawn) [OZ106] was tested, and the “IC50 (ng/ml) NF54” value was 1.7 ng/mL (≈ 2.93 nM). For `[N-]=[N+]=NCC[C@H]1CC[C@]2(CC1)OOC1(O2)C2CC3CC(C2)CC1C3` (stereo partly drawn) [OZ228], the “IC50 (ng/ml) NF54” value was 2.1 ng/mL (≈ 6.3 nM). For `Fc1ccc(C2(c3ccc(F)cc3)OOC3(CCC(c4ccccc4)CC3)O2)cc1` (stereo not drawn) [OZ66], the “IC50 (ng/ml) NF54” value was 36 ng/mL (≈ 88.1 nM). In the case of `COC(=O)c1cncn1C[C@H]1CC[C@]2(CC1)OOC1(O2)C2CC3CC(C2)CC1C3` (stereo partly drawn) [OZ223], the “IC50 (ng/ml) NF54” value is reported as greater than 10 ng/mL. With `O=C([C@H]1CC[C@]2(CC1)OO[C@]1(O2)C2CC3CC(C2)CC1C3)N1CCNCC1` [OZ368] the “IC50 (ng/ml) NF54” value was 0.43 ng/mL (≈ 1.14 nM).

These compounds were tested on ANKA strain of P. berghei (assay: single dose STI in vivo screen in infected mice). Details: percent reduction in parasitemia day 3 post-infection; single 3 mg/kg po in SSV.
Parameters: species or system Plasmodium berghei
Method in brief: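 Groups of 3-5 Moro SPF or NMRI mice infected with the ANKA strain of P. berghei received a single dose of trioxolane on day one post-infection. The compound was given in 3% ethanol and 7% Tween 80 or in SSV (0.5% w/v CMC, 0.5% v/v benzyl alcohol, 0.4% v/v Tween 80, 0.9% w/v sodium chloride in water). Antimalarial activity was scored as percent reduction in parasitemia on day three and as survival time versus untreated controls. Survival to day 30 counted as cure.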
For `O=C([C@H]1CC[C@]2(CC1)OO[C@]1(O2)C2CC3CC(C2)CC1C3)N1CCNCC1` [OZ368], the “Activity (%) 3 mg/kg SSV po” value was 99%.

Same assay, conditions: percent reduction in parasitemia day 3 post-infection; single 10 mg/kg po in 3% ethanol and 7% Tween 80; mice
For `COC(=O)c1ccc(C2(c3ccc(C(=O)OC)c(C(=O)OC)c3)OOC3(O2)C2CC4CC(C2)CC3C4)cc1C(=O)OC` (stereo not drawn) [OZ106], the “Activity (%) po” value was 0/0/0%. In the case of `[N-]=[N+]=NCC[C@H]1CC[C@]2(CC1)OOC1(O2)C2CC3CC(C2)CC1C3` (stereo partly drawn) [OZ228], the “Activity (%) po” value is reported as 99.94%. For `Fc1ccc(C2(c3ccc(F)cc3)OOC3(CCC(c4ccccc4)CC3)O2)cc1` (stereo not drawn) [OZ66], the “Activity (%) po” value was 0/NA/0%. For `COC(=O)c1cncn1C[C@H]1CC[C@]2(CC1)OOC1(O2)C2CC3CC(C2)CC1C3` (stereo partly drawn) [OZ223], the “Activity (%) po” value was 89%.

Same assay, conditions: percent reduction in parasitemia day 3 post-infection; single 10 mg/kg po in SSV
`O=C([C@H]1CC[C@]2(CC1)OO[C@]1(O2)C2CC3CC(C2)CC1C3)N1CCNCC1` [OZ368] was tested, and the “Activity (%) 10 mg/kg SSV po” value was 99.94%.

Same assay, conditions: percent reduction in parasitemia day 3 post-infection; single 10 mg/kg sc in 3% ethanol and 7% Tween 80; mice
`COC(=O)c1ccc(C2(c3ccc(C(=O)OC)c(C(=O)OC)c3)OOC3(O2)C2CC4CC(C2)CC3C4)cc1C(=O)OC` (stereo not drawn) [OZ106] was tested, and the “Activity (%) sc” value was 0/0/0%. For `[N-]=[N+]=NCC[C@H]1CC[C@]2(CC1)OOC1(O2)C2CC3CC(C2)CC1C3` (stereo partly drawn) [OZ228], the “Activity (%) sc” value was 99.94%. In the case of `Fc1ccc(C2(c3ccc(F)cc3)OOC3(CCC(c4ccccc4)CC3)O2)cc1` (stereo not drawn) [OZ66], the “Activity (%) sc” value is reported as 0/NA/0%. In the case of `COC(=O)c1cncn1C[C@H]1CC[C@]2(CC1)OOC1(O2)C2CC3CC(C2)CC1C3` (stereo partly drawn) [OZ223], the “Activity (%) sc” value is reported as 99.57%.

Same assay, conditions: percent reduction in parasitemia day 3 post-infection; single po dose in standard suspending vehicle (SSV); mice
In the case of `COC(=O)c1ccc(C2(c3ccc(C(=O)OC)c(C(=O)OC)c3)OOC3(O2)C2CC4CC(C2)CC3C4)cc1C(=O)OC` (stereo not drawn) [OZ106], the “Activity (%) SSVpo” value is reported as 0/0/0%. With `[N-]=[N+]=NCC[C@H]1CC[C@]2(CC1)OOC1(O2)C2CC3CC(C2)CC1C3` (stereo partly drawn) [OZ228] the “Activity (%) SSVpo” value was 28%. With `COC(=O)c1cncn1C[C@H]1CC[C@]2(CC1)OOC1(O2)C2CC3CC(C2)CC1C3` (stereo partly drawn) [OZ223] the “Activity (%) SSVpo” value was 79%.

Same assay, conditions: single 3 mg/kg po in SSV
In the case of `O=C([C@H]1CC[C@]2(CC1)OO[C@]1(O2)C2CC3CC(C2)CC1C3)N1CCNCC1` [OZ368], the “Survival (days) 3 mg/kg SSV po” value is reported as 9.2 days.

Same assay, conditions: single 10 mg/kg po in 3% ethanol and 7% Tween 80; untreated control 5.6 ± 0.3
With `COC(=O)c1ccc(C2(c3ccc(C(=O)OC)c(C(=O)OC)c3)OOC3(O2)C2CC4CC(C2)CC3C4)cc1C(=O)OC` (stereo not drawn) [OZ106] the “Survival (days) po” value was 5.3 days. `[N-]=[N+]=NCC[C@H]1CC[C@]2(CC1)OOC1(O2)C2CC3CC(C2)CC1C3` (stereo partly drawn) [OZ228] was tested, and the “Survival (days) po” value was 10.3 days. For `Fc1ccc(C2(c3ccc(F)cc3)OOC3(CCC(c4ccccc4)CC3)O2)cc1` (stereo not drawn) [OZ66], the “Survival (days) po” value was 5.3 days. For `COC(=O)c1cncn1C[C@H]1CC[C@]2(CC1)OOC1(O2)C2CC3CC(C2)CC1C3` (stereo partly drawn) [OZ223], the “Survival (days) po” value was 7.3 days.

Same assay, conditions: single 10 mg/kg po in SSV
With `O=C([C@H]1CC[C@]2(CC1)OO[C@]1(O2)C2CC3CC(C2)CC1C3)N1CCNCC1` [OZ368] the “Survival (days) 10 mg/kg SSV po” value was 9.0 days.

Same assay, conditions: single 10 mg/kg sc in 3% ethanol and 7% Tween 80; untreated control 5.6 ± 0.3
For `COC(=O)c1ccc(C2(c3ccc(C(=O)OC)c(C(=O)OC)c3)OOC3(O2)C2CC4CC(C2)CC3C4)cc1C(=O)OC` (stereo not drawn) [OZ106], the “Survival (days) sc” value was 5.3 days. In the case of `[N-]=[N+]=NCC[C@H]1CC[C@]2(CC1)OOC1(O2)C2CC3CC(C2)CC1C3` (stereo partly drawn) [OZ228], the “Survival (days) sc” value is reported as 14.0 days. In the case of `Fc1ccc(C2(c3ccc(F)cc3)OOC3(CCC(c4ccccc4)CC3)O2)cc1` (stereo not drawn) [OZ66], the “Survival (days) sc” value is reported as 5.7 days. In the case of `COC(=O)c1cncn1C[C@H]1CC[C@]2(CC1)OOC1(O2)C2CC3CC(C2)CC1C3` (stereo partly drawn) [OZ223], the “Survival (days) sc” value is reported as 12.0 days.

Same assay, conditions: single po dose in SSV; untreated control 5.6 ± 0.3
In the case of `COC(=O)c1ccc(C2(c3ccc(C(=O)OC)c(C(=O)OC)c3)OOC3(O2)C2CC4CC(C2)CC3C4)cc1C(=O)OC` (stereo not drawn) [OZ106], the “Survival (days) SSVpo” value is reported as 5.0 days. In the case of `[N-]=[N+]=NCC[C@H]1CC[C@]2(CC1)OOC1(O2)C2CC3CC(C2)CC1C3` (stereo partly drawn) [OZ228], the “Survival (days) SSVpo” value is reported as 6.0 days. `COC(=O)c1cncn1C[C@H]1CC[C@]2(CC1)OOC1(O2)C2CC3CC(C2)CC1C3` (stereo partly drawn) [OZ223] was tested, and the “Survival (days) SSVpo” value was 6.3 days.
